“Also recorded” adds a separate entry of the source.
Assays:
[1] = system: spondylarthropathy; conditions: cited from earlier work; for efficacy observed in spondylarthropathy: mainly in the treatment of peripheral arthritis
[2] = system: patient with severe spondyloarthropathy; experiment: Findings in a patient with severe spondyloarthropathy (Example 1, 18 month treatment); format: in vivo, human; conditions: for efficacy of previous anti-rheumatic medication: patient history, used alone and in various combinations
Text: The patient is a person who has radiologically verified bilateral sacroilitis and disease of large joints. They are also positive for the HLA-B27 antigen. The patient fulfills the ESSG criteria and the Amor criteria for spondylarthorpathy. […] In addition they have had symptoms also in small peripheral joints such as fingers and toes. […] The previous anti-rheumatic medication has included methotrexate, cyclosporine, infliximab, intramusclar.
During the study the vital signs and blood chemistry was controlled first weekly, then biweekly and after three months once per month.
No corticosteroid injections are given.

[3] = system: patient with psoriasis arthropathy

Question: Which “efficacy observed in spondylarthropathy” value [1] does the source give for `O=C(O)c1cc(/N=N/c2ccc(S(=O)(=O)Nc3ccccn3)cc2)ccc1O` [sulfasalazine] here?
Answer: minor efficacy

Question: Which “efficacy of previous anti-rheumatic medication” value [2] does the source give for `Cc1oncc1C(=O)Nc1ccc(C(F)(F)F)cc1` [leflunomide, reference compound] here?
Answer: inefficient

Question: With infliximab as the compound, how does the “efficacy of previous anti-rheumatic medication” value [2] read?
Answer: inefficient

Question: Which “efficacy of previous anti-rheumatic medication” value [2] does the source give for `CN(Cc1cnc2nc(N)nc(N)c2n1)c1ccc(C(=O)N[C@@H](CCC(=O)O)C(=O)O)cc1` [methotrexate, reference compound] here?
Answer: inefficient

Question: And the “efficacy of previous anti-rheumatic therapy” value ([3]; patient history, methotrexate 20 mg per week, cyclosporine 150 mg, discontinued)?
Answer: lack of efficacy

Question: What about the “efficacy in sporiasis arthropathy” value ([1]; in vivo) of the same compound?
Answer: some efficacy

Question: And the “efficacy observed in spondylarthropathy” value [1]?
Answer: minor efficacy

Question: With `Cc1ccc(NC(=O)c2ccc(CN3CCN(C)CC3)cc2)cc1Nc1nccc(-c2cccnc2)n1` [study drug, 4-[(4-methyl-1-piperazin-1-ylmethyl)-N-[4-methyl-3-[4-(3-pyridinyl)-2-pyrimidinyl]amino]phenyl]benzamide Monomethanesulfonate] as the compound, how does the “infections during the treatment” value ([2]; 18 months of treatment) read?
Answer: no significant infections

Question: What about the swollen joint count ([2]; after 18 month treatment, 31 before treatment, oral, up to 400 mg per day, added to hydroxychloroquine, prednisone, ibuprofen) of the same compound?
Answer: 5

Question: What about the side effects ([2]; after 18 months of treatment) of the same compound?
Answer: no serious side effects have been observed; also recorded: slight dryness of the skin

Question: And the “health assessment questionnaire score (HAQ)” value ([2]; after 18 months of treatment, 1.5 before treatment, high score = high disability)?
Answer: 0.75

Question: And the “time after start at which antirheumatic effect could be observed (movements in shoulder joints improved)” value ([2]; after study drug was started)?
Answer: two

Question: And the CRP ([2]; after the treatment (18 months), 42 mg/L before treatment)?
Answer: 11 mg/L

Question: What about the tender joint count ([2]; after the treatment (18 months), 10 before treatment) of the same compound?
Answer: 1

Question: And the erythrocyte sedimentation rate ([2]; after the treatment (18 months), 28 mm/h before treatment)?
Answer: 11 mm/h

Question: And the “pain experienced by the patient, visual analogue scale (VAS)” value ([2]; after treatment (18 months), 37 mm before treatment)?
Answer: 11 mm

Question: What about the “disease activity as estimated by the patient (VAS)” value ([2]; after treatment (18 months), 69 mm before treatment) of the same compound?
Answer: 11 mm

Question: What about the “side effects or infections during the treatment” value ([3]; 3 month study) of the same compound?
Answer: No serious side effects or infections; also recorded: slight tiredness and mild muscle cramps

Question: What about the “number of swollen joints” value ([3]; after three month treatment, from 5, oral, up to 400 mg per day, added to naproxen, injected joints omitted) of the same compound?
Answer: 2

Question: What about the BASDAI score ([3]; after three month treatment, from 6.5) of the same compound?
Answer: 3.1

Question: And the “number of tender joints” value ([3]; after three month treatment, from 10)?
Answer: 0

Question: What about the “general pain (VAS)” value ([3]; after three month treatment, from 33 mm) of the same compound?
Answer: 12 mm

Question: And the “night pain experienced by the patient (VAS)” value ([3]; after three month treatment, from 34 mm)?
Answer: 4 mm

Question: What about the ESR ([3]; after three month treatment, from 40) of the same compound?
Answer: 12

Question: What about the “disease activity (VAS)” value ([3]; after three month treatment, from 41 mm) of the same compound?
Answer: 23 mm

Question: And the CRP ([3]; after three month treatment, from 47)?
Answer: 25

Question: Which “efficacy of previous anti-rheumatic medication” value [2] does the source give for `Cn1cnc([N+](=O)[O-])c1Sc1ncnc2nc[nH]c12` [azathioprine, reference compound] here?
Answer: inefficient
